Test results: ChEMBL document CHEMBL1201862, “PubChem BioAssay data set” (2004)
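96-well plates; 48 h exposure; 5 concentrations. Endpoints by linear interpolation between flanking doses. Not reached: highest tested concentration assigned. At the GI50, growth is halved.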 Activity calls are given as the source filed them. Rule as the data show it: active = GI50 up to about 1.1 µM and inactive = higher.

Columns and labels:
Assay in all cases: NCI-60 cell line screen, 48 h
[1] = tested on: M14
[2] = tested on: NCI-H226
[3] = tested on: SK-OV-3
[4] = tested on: OVCAR-4
[5] = tested on: SW-620
[6] = tested on: SN12C
[7] = tested on: SK-MEL-5
[8] = tested on: A549
[9] = tested on: HOP-62
[10] = tested on: SK-MEL-2
[11] = tested on: SNB-75
[12] = tested on: OVCAR-3
[13] = tested on: HCT-15
[14] = tested on: MCF7
[15] = tested on: HL-60
[16] = tested on: MOLT-4
[17] = tested on: Hs-578T
[18] = tested on: UACC-62
[19] = tested on: IGROV-1
[20] = tested on: SNB-19

Structure (SMILES)	GI50 [1]	GI50 [2]	GI50 [3]	GI50 [4]	GI50 [5]	GI50 [6]	GI50 [7]	GI50 [8]	GI50 [9]	GI50 [10]	GI50 [11]	GI50 [12]	GI50 [13] [µM]	GI50 [14]	GI50 [15]	GI50 [16]	GI50 [17]	GI50 [18]	GI50 [19]	GI50 [20]
CSC1=NN(C(C)=O)C(C(OC(C)=O)C(OC(C)=O)C(OC(C)=O)C(COC(C)=O)OC(C)=O)S1 (stereo not given)	> 100 µM (inactive)	> 100 µM (inactive)	> 100 µM (inactive)	> 100 µM (inactive)	> 100 µM (inactive)	> 100 µM (inactive)	> 100 µM (inactive)	> 100 µM (inactive)	> 100 µM (inactive)	> 100 µM (inactive)	> 100 µM (inactive)	> 100 µM (inactive)	> 100	> 100 µM (inactive)	> 100 µM (inactive)	> 100 µM (inactive)	> 100 µM (inactive)	> 100 µM (inactive)	> 100 µM (inactive)	> 100 µM (inactive)
O=C(/C=C/c1ccc2c(c1)OCO2)CC(=O)/C=C/c1ccc2c(c1)OCO2	> 100 µM (inactive)	> 100 µM (inactive)	> 100 µM (inactive)	19.1 µM (inactive)	> 100 µM (inactive)	> 100 µM (inactive)	> 100 µM (inactive)	> 100 µM (inactive)	> 100 µM (inactive)	> 100 µM (inactive)	> 100 µM (inactive)	27.1 µM (inactive)	> 100	77.4 µM (inactive)	41.7 µM (inactive)	> 100 µM (inactive)	57.9 µM (inactive)	> 100 µM (inactive)	23.5 µM (inactive)	92.7 µM (inactive)
O=C(/C=C/c1ccccc1O)CC(=O)/C=C/c1ccccc1O	12.8 µM (inactive)	> 10 µM (inactive)	> 10 µM (inactive)	15.1 µM (inactive)	4.51 µM (inactive)	5.38 µM (inactive)	5.32 µM (inactive)	7.14 µM (inactive)	11.8 µM (inactive)	8.79 µM (inactive)	> 46.2 µM (inactive)	3.82 µM (inactive)	3.64	4.14 µM (inactive)	3.24 µM (inactive)	3.78 µM (inactive)	8.17 µM (inactive)	4.93 µM (inactive)	5.73 µM (inactive)	9.84 µM (inactive)
CC(NC(=O)C(NC(=O)C(NC(=O)C(F)(F)F)C(C)C)C(C)C)C(=O)Oc1c(Cl)c(Cl)c(Cl)c(Cl)c1Cl (stereo not given)	> 100 µM (inactive)	94.6 µM (inactive)	> 100 µM (inactive)	> 100 µM (inactive)	> 100 µM (inactive)	> 100 µM (inactive)	> 100 µM (inactive)	> 100 µM (inactive)	> 100 µM (inactive)	> 100 µM (inactive)	> 100 µM (inactive)	92.5 µM (inactive)	> 100	> 100 µM (inactive)	> 100 µM (inactive)	> 100 µM (inactive)	> 100 µM (inactive)	> 100 µM (inactive)	> 100 µM (inactive)	> 100 µM (inactive)
CO/C(=N\N=C\c1cccc(C(F)(F)F)c1)c1ccncc1	6.3 µM (inactive)	3.56 µM (inactive)	6.89 µM (inactive)	41 µM (inactive)	4.6 µM (inactive)	3.67 µM (inactive)	11.4 µM (inactive)	8.09 µM (inactive)	2.93 µM (inactive)	2.89 µM (inactive)	15.5 µM (inactive)	10.7 µM (inactive)	2.45	2.52 µM (inactive)	2.83 µM (inactive)	5.21 µM (inactive)	5.93 µM (inactive)	4.28 µM (inactive)	10 µM (inactive)	9.08 µM (inactive)
O=C(c1c(F)c(F)c(F)c(F)c1F)n1c(O)nc2ccccc21	9.33 µM (inactive)	17.3 µM (inactive)	15.4 µM (inactive)	13.3 µM (inactive)	4.91 µM (inactive)	14.1 µM (inactive)	15.2 µM (inactive)	16.7 µM (inactive)	17.2 µM (inactive)	4.2 µM (inactive)	16.5 µM (inactive)	9.77 µM (inactive)	5.06	4.04 µM (inactive)	2.42 µM (inactive)	4.47 µM (inactive)	17.2 µM (inactive)	12.1 µM (inactive)	11.4 µM (inactive)	14.9 µM (inactive)
CCCCc1ccc(Nc2nc(N)c3ncn(COCCO)c3n2)cc1	20.6 µM (inactive)	44.3 µM (inactive)	11.2 µM (inactive)	32.2 µM (inactive)	26.1 µM (inactive)	33 µM (inactive)	18 µM (inactive)	44.3 µM (inactive)	17.1 µM (inactive)	17 µM (inactive)	32.6 µM (inactive)	16.6 µM (inactive)	19.3	37.4 µM (inactive)	36.3 µM (inactive)	33 µM (inactive)	36.8 µM (inactive)	16.8 µM (inactive)	18 µM (inactive)	48.9 µM (inactive)
C[C@@H]1C[C@H]2CC[C@H](O2)[C@H](C)C(=O)O[C@@H](C)C[C@@H]2CC[C@@H](O2)[C@@H](C)C(=O)O[C@H](C)C[C@H]2CC[C@H](O2)[C@H](C)C(=O)O[C@@H](C)C[C@@H]2CC[C@@H](O2)[C@@H](C)C(=O)O1	0.434 µM (active)	0.436 µM (active)	0.2 µM (active)	0.136 µM (active)	0.349 µM (active)	0.366 µM (active)	0.154 µM (active)	0.344 µM (active)	0.319 µM (active)	0.245 µM (active)	0.338 µM (active)	0.073 µM (active)	0.646	0.326 µM (active)	0.157 µM (active)	0.36 µM (active)	0.489 µM (active)	0.351 µM (active)	0.34 µM (active)	0.366 µM (active)
CC[C@@]1(O)C(=O)OCc2c1cc1n(c2=O)Cc2c-1nc1ccccc1c2CC[Si](C)(C)C [COSITECAN]	< 0.01 µM (active)	< 0.01 µM (active)	< 0.01 µM (active)	0.0998 µM (active)	0.0101 µM (active)	< 0.01 µM (active)	< 0.01 µM (active)	< 0.01 µM (active)	< 0.01 µM (active)	0.053 µM (active)	< 0.01 µM (active)	0.0604 µM (active)	0.0789	< 0.01 µM (active)	< 0.01 µM (active)	< 0.01 µM (active)	7.73 µM (inactive)	< 0.01 µM (active)	0.0149 µM (active)	< 0.01 µM (active)
